Assay results: paper PMC4893804 (Journal of medicinal chemistry, 2015)
Where two headings read alike, the source gives them in different places.

Legend:
HIV-1 RT = HIV-1 RT (Human immunodeficiency virus type 1 group M subtype B, UniProt P03366); experiment: HIV-1 reverse transcriptase assay with homopolymeric template/primers; format: biochemical
[1] = biological target: HCMV DNA polymerase (UL54) (Human cytomegalovirus, UniProt P08546); experiment: Enzyme assay with HCMV DNA polymerase; format: biochemical; settings: activated calf thymus DNA, [3H]dTTP
Sequence of HCMV DNA polymerase (UL54) (P08546 whole entry): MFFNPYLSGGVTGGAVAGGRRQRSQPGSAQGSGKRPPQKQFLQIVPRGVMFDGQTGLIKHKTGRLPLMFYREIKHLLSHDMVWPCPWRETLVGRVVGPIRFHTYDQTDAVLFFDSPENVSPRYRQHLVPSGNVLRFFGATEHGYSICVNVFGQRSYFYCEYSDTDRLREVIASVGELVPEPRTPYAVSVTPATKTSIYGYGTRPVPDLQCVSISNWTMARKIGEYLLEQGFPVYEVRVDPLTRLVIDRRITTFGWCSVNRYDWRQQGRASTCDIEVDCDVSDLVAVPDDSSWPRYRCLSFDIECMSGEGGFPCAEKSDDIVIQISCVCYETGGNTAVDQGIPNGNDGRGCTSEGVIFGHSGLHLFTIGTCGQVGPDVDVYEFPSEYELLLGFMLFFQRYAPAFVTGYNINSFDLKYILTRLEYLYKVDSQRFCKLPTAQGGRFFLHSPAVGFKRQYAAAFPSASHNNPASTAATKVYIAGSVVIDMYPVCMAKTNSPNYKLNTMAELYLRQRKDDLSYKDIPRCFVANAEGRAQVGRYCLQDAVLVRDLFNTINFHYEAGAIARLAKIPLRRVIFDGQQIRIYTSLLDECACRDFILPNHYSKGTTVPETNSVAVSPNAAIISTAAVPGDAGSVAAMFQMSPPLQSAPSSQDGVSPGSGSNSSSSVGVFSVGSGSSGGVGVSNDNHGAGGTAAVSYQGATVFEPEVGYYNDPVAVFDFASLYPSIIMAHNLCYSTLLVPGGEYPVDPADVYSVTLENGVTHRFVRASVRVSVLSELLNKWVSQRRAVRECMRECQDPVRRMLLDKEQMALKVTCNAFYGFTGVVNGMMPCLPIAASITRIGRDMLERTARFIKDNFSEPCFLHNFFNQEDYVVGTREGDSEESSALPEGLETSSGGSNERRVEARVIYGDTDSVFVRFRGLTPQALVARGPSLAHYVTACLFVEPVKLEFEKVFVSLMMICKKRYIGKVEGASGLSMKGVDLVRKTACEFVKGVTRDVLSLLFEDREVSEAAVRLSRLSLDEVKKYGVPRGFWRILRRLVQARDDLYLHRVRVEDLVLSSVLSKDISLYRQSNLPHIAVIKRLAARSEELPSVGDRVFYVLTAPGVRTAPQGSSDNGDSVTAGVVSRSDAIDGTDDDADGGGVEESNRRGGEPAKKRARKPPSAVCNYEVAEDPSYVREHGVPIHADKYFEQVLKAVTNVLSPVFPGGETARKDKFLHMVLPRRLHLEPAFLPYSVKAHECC

HSV-1 DNA polymerase = HSV-1 DNA polymerase (Human herpesvirus 1, UniProt P04293); experiment: Enzyme assay with HSV-1 DNA polymerase; format: biochemical
Sequence of HSV-1 DNA polymerase (P04293 whole entry): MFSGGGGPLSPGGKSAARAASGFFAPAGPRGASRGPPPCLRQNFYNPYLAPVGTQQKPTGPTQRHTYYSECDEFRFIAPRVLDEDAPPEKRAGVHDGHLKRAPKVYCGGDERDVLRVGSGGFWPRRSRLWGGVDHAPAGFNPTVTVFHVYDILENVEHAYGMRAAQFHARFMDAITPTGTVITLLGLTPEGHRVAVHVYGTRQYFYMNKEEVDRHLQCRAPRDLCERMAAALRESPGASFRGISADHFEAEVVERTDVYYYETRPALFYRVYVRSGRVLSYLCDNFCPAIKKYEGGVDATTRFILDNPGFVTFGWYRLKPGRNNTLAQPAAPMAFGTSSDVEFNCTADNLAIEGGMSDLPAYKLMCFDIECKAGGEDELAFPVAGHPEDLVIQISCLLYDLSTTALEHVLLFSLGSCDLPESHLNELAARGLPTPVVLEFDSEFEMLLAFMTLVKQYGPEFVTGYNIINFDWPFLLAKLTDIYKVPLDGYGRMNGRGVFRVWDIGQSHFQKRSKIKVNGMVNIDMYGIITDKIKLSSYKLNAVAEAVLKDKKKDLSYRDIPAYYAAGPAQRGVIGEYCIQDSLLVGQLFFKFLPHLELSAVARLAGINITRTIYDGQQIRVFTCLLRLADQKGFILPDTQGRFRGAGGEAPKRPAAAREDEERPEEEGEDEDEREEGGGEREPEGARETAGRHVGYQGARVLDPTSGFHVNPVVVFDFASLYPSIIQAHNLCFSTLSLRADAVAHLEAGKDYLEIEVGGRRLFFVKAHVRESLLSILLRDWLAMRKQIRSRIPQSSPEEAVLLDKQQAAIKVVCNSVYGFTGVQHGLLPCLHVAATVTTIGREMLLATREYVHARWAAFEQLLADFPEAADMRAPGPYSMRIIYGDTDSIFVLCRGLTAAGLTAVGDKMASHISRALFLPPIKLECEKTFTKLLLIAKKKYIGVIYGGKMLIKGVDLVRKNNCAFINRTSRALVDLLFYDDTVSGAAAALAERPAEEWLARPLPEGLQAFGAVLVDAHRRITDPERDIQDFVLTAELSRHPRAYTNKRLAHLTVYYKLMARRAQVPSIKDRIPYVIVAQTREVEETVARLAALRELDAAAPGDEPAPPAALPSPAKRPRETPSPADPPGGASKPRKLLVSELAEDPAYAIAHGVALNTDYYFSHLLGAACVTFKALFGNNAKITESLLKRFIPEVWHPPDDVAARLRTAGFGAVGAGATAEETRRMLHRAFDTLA

VZV DNA polymerase = VZV DNA polymerase (Varicella-zoster virus, UniProt P09252); experiment: Enzyme assay with VZV DNA polymerase; format: biochemical
Sequence of VZV DNA polymerase (P09252 whole entry): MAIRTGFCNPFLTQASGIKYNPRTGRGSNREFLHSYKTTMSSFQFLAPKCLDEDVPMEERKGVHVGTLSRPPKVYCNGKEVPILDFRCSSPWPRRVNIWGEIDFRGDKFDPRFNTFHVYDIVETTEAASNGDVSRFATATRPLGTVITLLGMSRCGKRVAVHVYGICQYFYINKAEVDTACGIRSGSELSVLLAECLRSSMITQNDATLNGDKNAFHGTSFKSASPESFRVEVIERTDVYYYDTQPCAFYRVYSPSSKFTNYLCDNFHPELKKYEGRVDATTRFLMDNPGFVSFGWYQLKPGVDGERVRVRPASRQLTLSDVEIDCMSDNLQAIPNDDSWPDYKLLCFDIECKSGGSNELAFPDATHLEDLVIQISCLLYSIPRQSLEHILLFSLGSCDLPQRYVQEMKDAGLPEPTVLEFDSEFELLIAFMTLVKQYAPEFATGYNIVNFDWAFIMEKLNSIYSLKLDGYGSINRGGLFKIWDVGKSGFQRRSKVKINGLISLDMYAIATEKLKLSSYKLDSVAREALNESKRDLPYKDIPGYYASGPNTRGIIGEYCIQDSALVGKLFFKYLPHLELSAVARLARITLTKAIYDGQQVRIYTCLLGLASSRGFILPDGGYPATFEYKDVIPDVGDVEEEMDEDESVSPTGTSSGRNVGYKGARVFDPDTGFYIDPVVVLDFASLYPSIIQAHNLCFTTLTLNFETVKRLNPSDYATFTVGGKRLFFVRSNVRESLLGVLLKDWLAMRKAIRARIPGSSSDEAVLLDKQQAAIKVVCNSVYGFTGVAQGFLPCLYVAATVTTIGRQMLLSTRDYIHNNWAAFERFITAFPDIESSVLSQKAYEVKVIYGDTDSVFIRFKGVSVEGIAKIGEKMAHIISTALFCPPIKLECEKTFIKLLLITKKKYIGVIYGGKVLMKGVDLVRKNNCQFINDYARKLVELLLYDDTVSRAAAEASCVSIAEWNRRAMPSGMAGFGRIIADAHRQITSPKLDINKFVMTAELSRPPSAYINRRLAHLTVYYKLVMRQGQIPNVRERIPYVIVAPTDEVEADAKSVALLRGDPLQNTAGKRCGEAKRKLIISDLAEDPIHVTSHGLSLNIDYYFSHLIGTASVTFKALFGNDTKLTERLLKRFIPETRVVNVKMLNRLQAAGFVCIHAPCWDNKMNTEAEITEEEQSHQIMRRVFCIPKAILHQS

Human DNA Pol α = biological target: T1, Human DNA Pol α (Homo sapiens, UniProt P09884); experiment: Enzyme assay with human DNA polymerase α; format: biochemical
T1 sequence (P09884 1-1462): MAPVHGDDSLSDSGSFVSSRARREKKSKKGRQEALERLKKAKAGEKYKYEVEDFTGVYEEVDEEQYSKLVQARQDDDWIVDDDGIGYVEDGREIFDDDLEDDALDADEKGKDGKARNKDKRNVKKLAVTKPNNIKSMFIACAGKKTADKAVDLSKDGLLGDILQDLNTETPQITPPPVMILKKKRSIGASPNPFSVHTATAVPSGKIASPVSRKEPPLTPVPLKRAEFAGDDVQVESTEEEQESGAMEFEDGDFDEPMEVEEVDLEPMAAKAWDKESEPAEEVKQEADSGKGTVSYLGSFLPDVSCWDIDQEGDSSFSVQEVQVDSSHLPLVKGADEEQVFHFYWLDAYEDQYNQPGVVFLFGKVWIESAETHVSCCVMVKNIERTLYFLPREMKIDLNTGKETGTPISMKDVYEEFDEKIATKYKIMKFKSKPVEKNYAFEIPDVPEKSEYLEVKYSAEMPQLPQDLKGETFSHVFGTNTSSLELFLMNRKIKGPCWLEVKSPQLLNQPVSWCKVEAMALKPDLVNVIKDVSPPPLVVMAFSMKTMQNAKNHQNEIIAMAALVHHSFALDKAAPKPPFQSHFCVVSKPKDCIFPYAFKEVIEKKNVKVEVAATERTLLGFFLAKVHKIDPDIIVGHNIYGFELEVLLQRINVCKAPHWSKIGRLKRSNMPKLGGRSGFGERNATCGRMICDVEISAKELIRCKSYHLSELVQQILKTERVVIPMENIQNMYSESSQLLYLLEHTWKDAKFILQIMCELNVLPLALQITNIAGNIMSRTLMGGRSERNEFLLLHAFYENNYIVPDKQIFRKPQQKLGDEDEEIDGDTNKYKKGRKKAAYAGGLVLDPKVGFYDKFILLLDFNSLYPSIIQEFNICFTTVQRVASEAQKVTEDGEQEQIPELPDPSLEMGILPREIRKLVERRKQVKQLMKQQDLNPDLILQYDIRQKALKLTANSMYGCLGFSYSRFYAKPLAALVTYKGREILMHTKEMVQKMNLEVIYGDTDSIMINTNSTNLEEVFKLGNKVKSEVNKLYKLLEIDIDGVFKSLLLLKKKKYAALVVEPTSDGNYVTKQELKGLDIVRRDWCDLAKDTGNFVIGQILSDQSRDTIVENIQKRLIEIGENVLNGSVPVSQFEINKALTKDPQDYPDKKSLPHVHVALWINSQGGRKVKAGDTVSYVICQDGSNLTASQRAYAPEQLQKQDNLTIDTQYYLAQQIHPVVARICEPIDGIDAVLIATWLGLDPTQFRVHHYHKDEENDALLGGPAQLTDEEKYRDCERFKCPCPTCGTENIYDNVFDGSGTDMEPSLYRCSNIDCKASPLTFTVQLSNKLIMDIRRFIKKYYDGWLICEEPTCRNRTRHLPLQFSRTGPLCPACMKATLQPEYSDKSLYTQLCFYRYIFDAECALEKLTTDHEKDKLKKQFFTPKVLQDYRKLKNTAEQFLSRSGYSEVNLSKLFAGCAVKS

Human DNA Pol β = Human DNA Pol β (Homo sapiens, UniProt P06746); experiment: Enzyme assay with human DNA polymerase β; format: biochemical
M184I HIV-1 RT = M184I HIV-1 RT (Human immunodeficiency virus type 1 group M subtype B, UniProt P03366, M783I); experiment: Mutant HIV-1 RT assay
Y115F HIV-1 RT = Y115F HIV-1 RT (Human immunodeficiency virus type 1 group M subtype B, UniProt P03366, Y714F); experiment: Mutant HIV-1 RT assay
[2] = IC50 HIV-1 RT, poly rA.dT template/primer, [3H]dTTP
[3] = IC50 HIV-1 RT Poly rA.dT ([3H]dTTP), Table 7, Poly rA.dT, [3H]dTTP
[4] = IC50 HIV-1 RT Poly rC.dG ([3H]dGTP), Poly rC.dG, [3H]dGTP
[5] = IC50 HIV-1 RT Poly rI.dC ([3H]dCTP), Poly rI.dC, [3H]dCTP
[6] = IC50 HIV-1 RT Poly rU.dA ([3H]dATP), Poly rU.dA, [3H]dATP
[7] = IC50 Wild-type HIV-1 RT, Table 8, wild-type RT
[8] = read-out: IC50 HIV-1 RT Poly rA.dT ([3H]dTTP), Table 7, Poly rA.dT, [3H]dTTP
[9] = read-out: IC50 HIV-1 RT Poly rC.dG ([3H]dGTP), Poly rC.dG, [3H]dGTP
[10] = read-out: IC50 HIV-1 RT Poly rI.dC ([3H]dCTP), Poly rI.dC, [3H]dCTP
[11] = read-out: IC50 HIV-1 RT Poly rU.dA ([3H]dATP), Poly rU.dA, [3H]dATP

Row | Structure (SMILES) | IC50 (HIV-1 RT; [2]) | IC50 ([1]; IC50 HCMV DNA Pol) | IC50 (HSV-1 DNA polymerase) | IC50 (VZV DNA polymerase) | IC50 (Human DNA Pol α) | IC50 (Human DNA Pol β) | IC50 (HIV-1 RT; [3]) | IC50 (HIV-1 RT; [4]) | IC50 (HIV-1 RT; [5]) | IC50 (HIV-1 RT; [6]) | further results
1 | O=C(O)C(OC/C=C\Cn1cc(F)c(=O)[nH]c1=O)P(=O)(O)O (stereo not drawn) [Compound 6i, 2-Cis-(4-(5-fluoro-2,4-dioxo-3,4-dihydropyrimidin-1(2H)-yl)but-2-enyloxy)-2-phosphonoacetic acid] | > 500 µM | 30 ± 16 µM | 24 ± 1 µM | 27 ± 2 µM | 325 ± 4 µM | > 500 µM | – | – | – | – | –
2 | O=C(O)C(OCCCCn1cc(F)c(=O)[nH]c1=O)P(=O)(O)O (stereo not drawn) [Compound 6j, 2-(4-(5-Fluoro-2,4-dioxo-3,4-dihydropyrimidin-1(2H)-yl)butoxy)-2-phosphonoacetic acid] | – | – | – | – | – | – | – | – | – | – | IC50 (HIV-1 RT; read-out: IC50 HIV-1 RT, poly rA.dT template/primer, [3H]dTTP): 263 ± 69 µM; IC50 ([1]; read-out: IC50 HCMV DNA Pol): 9.4 ± 4.1 µM; IC50 (HSV-1 DNA polymerase; read-out: IC50 HSV-1 DNA Pol, activated calf thymus DNA, [3H]dTTP): 6.7 ± 4.6 µM; IC50 (VZV DNA polymerase; read-out: IC50 VZV DNA Pol, poly dA.oligo dT, [3H]dTTP): 4.1 ± 0.9 µM; IC50 (Human DNA Pol α; read-out: IC50 Human DNA Pol α, activated calf thymus DNA, [3H]dTTP): 72 ± 52 µM; IC50 (Human DNA Pol β; read-out: IC50 Human DNA Pol β, activated calf thymus DNA, [3H]dTTP): 306 ± 3 µM
3 | Nc1ncnc2c1ncn2C/C=C\COC(C(=O)O)P(=O)(O)O (stereo not drawn) [Compound 6k, 2-Cis-(4-(6-amino-9H-purin-9-yl)but-2-enyloxy)-2-phosphonoacetic acid] | 404 ± 30 µM | 5.5 ± 2.1 µM | 2.7 ± 2 µM | 3.3 ± 0.4 µM | ≥ 500 µM | 454 ± 28 µM | 404 ± 30 µM | > 500 µM | > 500 µM | 40 ± 8 µM | IC50 (HIV-1 RT; [7]): 531 ± 154 µM; IC50 (M184I HIV-1 RT): ≥ 2.5 mM; IC50 (Y115F HIV-1 RT): 630 ± 37 µM
4 | Nc1nc2c(ncn2C/C=C\COC(C(=O)O)P(=O)(O)O)c(=O)[nH]1 (stereo not drawn) [Compound 6l, 2-Cis-(4-(2-amino-6-oxo-1H-purin-9(6H)-yl)but-2-enyloxy)-2-phosphonoacetic acid] | ≥ 500 µM | 3.6 ± 0.6 µM | 2.1 ± 2.3 µM | 2.9 µM | 365 ± 91 µM | > 500 µM | ≥ 500 µM | > 500 µM | > 500 µM | 369 ± 48 µM | IC50 (HIV-1 RT; [7]): ≥ 1250 µM; IC50 (M184I HIV-1 RT): > 1.25 mM; IC50 (Y115F HIV-1 RT): ≥ 1250 µM
5 | Nc1ncnc2c1ncn2[C@H]1CC[C@@H](COP(=O)(O)OP(=O)(O)OP(=O)(O)O)O1 [ddATP, reference compound] | – | – | – | – | – | – | > 20 µM | > 20 µM | > 20 µM | 0.46 ± 0.12 µM | –
6 | Nc1ccn([C@H]2CC[C@@H](COP(=O)(O)OP(=O)(O)OP(=O)(O)O)O2)c(=O)n1 [ddCTP, reference compound] | – | – | – | – | – | – | – | – | – | – | IC50 (HIV-1 RT; IC50 HIV-1 RT Poly rA.dT ([3H]dTTP)): > 20 µM; IC50 (HIV-1 RT; IC50 HIV-1 RT Poly rC.dG ([3H]dGTP)): > 20 µM; IC50 (HIV-1 RT; IC50 HIV-1 RT Poly rI.dC ([3H]dCTP)): 3.1 ± 2.2 µM; IC50 (HIV-1 RT; IC50 HIV-1 RT Poly rU.dA ([3H]dATP)): > 20 µM
7 | Nc1nc2c(ncn2[C@H]2CC[C@@H](COP(=O)(O)OP(=O)(O)OP(=O)(O)O)O2)c(=O)[nH]1 [ddGTP, reference compound] | – | – | – | – | – | – | – | – | – | – | IC50 (HIV-1 RT; [8]): > 20 µM; IC50 (HIV-1 RT; [9]): 0.26 ± 0.17 µM; IC50 (HIV-1 RT; [10]): > 20 µM; IC50 (HIV-1 RT; [11]): > 20 µM
8 | Cc1cn([C@H]2CC[C@@H](COP(=O)(O)OP(=O)(O)OP(=O)(O)O)O2)c(=O)[nH]c1=O [ddTTP, reference compound] | – | – | – | – | – | – | – | – | – | – | IC50 (HIV-1 RT; [8]): 0.05 ± 0.01 µM; IC50 (HIV-1 RT; [9]): > 20 µM; IC50 (HIV-1 RT; [10]): > 20 µM; IC50 (HIV-1 RT; [11]): > 20 µM
